Test results from patent publication US6924292B2, “Furoisoquinoline derivatives, process for producing the same and use thereof” (Takeda Chemical Industries, Ltd., priority 2000, dated 2005).

Key:
[1] = biological target: T1, recombinant human brain-derived phosphodiesterase 4D3 (Homo sapiens, UniProt Q08499); assay: Assay of phosphodiesterase IV-inhibiting effect (SPA, [3H]cAMP); type: biochemical; settings: recombinant human brain-derived phosphodiesterase 4D3, SPA with [3H]cAMP, 30 minutes at 30° C.; read-out: PDE IV-inhibiting effect (IC50)
T1 construct: GST (N); made in house; host or cells: Escherichia coli BL21 (BL21/pPDE4D3, FERM BP-7075)
T1 sequence (Q08499 1-673 isoform Q08499-2): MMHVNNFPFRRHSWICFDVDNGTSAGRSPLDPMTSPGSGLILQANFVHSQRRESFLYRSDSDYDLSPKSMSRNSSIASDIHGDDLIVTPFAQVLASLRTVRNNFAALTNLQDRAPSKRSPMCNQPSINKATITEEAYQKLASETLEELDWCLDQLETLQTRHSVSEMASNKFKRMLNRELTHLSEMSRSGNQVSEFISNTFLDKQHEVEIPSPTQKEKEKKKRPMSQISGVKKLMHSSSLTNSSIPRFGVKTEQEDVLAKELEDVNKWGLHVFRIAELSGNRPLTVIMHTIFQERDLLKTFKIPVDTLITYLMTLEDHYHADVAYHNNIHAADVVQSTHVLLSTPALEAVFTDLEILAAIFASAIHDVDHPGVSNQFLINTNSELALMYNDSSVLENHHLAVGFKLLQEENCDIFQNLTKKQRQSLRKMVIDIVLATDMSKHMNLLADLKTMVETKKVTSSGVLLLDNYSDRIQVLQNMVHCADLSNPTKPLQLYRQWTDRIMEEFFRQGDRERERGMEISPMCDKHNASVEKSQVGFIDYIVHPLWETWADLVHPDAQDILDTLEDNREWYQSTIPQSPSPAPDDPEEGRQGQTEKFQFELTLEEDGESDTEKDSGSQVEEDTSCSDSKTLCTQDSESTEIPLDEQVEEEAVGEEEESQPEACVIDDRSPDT
Description: Experiment Example 1 Assay of Phosphodiesterase IV-inhibiting Effect
(1) Human Brain-derived Phosphodiesterase 4D3-encoding Gene Cloning
From a human brain cDNA library, a gene encoding phosphodiesterase 4D3 was cloned. […] The resultant PCR product was subjected to an agarose gel electrophoresis and an about 2.4 kb DNA fragment was recovered. This fragment was made blunt using a Pfu DNA polymerase ([…]) and then a phosphodiesterase 4D3 gene was cloned using Zero Blunt PCR Cloning Kit (Invitrogen).
(2) Construction of E.coli Expression Vector
The plasmid obtained in Section (1) described above was digested with a restriction enzyme EcoRI (Takara) and subjected to an agarose gel electrophoresis to recover an about 2.4 kb DNA fragment. […] This cDNA fragment was transformed into an E.coli BL21 (FUNAKOSHI) using a ligation solution, whereby obtaining an Escherichia coli BL21/pPDE4D3 capable of expressing the phosphodiesterase 4D3 gene.
(3) Expression of Recombinant Human Brain-derived Phosphodiesterase 4D3 in Escherichia coli and Purification Thereof
Using the Escherichia coli BL21/pPDE4D3 obtained in Section (2) described above, a recombinant human brain-derived phosphodiesterase 4D3 was obtained. The expression and purification of E. coli were in accordance with the protocol attached to GST Gene Fusion System (Pharmacia).
(4) Assay of Phosphodiesterase IV-inhibiting Effect
To a 96-well plate (OPTI plate, Packard), 10 μl of a buffer solution [0.5 M Tris-HCl (pH7.5), 83 mM MgCl2, 17 mM EGTA], 10 μl of the recombinant human brain-derived phosphodiesterase 4D3 (0.0034 mg/mL) obtained in […] described above, 65 μl of Ultrapure water, 5 μl of an inhibitor sample and 10 μl of [^3H]cAMP were added and reacted for 30 minutes at 30° C. After completing the reaction, 50 μl of SPA beads solution [18 mg/mL Yttrium silicate beads, 18 mM ZnSO4] was added, allowed to stand at room temperature for about 20 minutes, and the radioactivity was counted using a scintillation counter (Topcount, Packard). […] This assay system was employed to determine the recombinant human brain-derived phosphodiesterase-inhibiting effect (IC50) of each inventive compound.

[2] = system: antigen-induced bronchoconstriction; assay: Inhibiting effect on antigen-induced bronchoconstriction in guinea pigs (modified Konzett-Rossler method); type: in vivo; settings: guinea pig, 1 mg/kg intravenously 5 minutes before the antigen challenge, vs control group
Experimental: Example 2 Inhibiting Effect on Antigen-induced Bronchoconstriction in Guinea Pigs
(1) Preparation of Rabbit Anti-ovalbumin (OA) Serum
A white rabbit (body weight: about 3 kg; New Zealand white: […] LABES) was immunized by an intramuscular administration of 1.0 mL of an emulsion of 0.5 mL of a 10% OA (Grade III, Sigma) solution and 0.5 mL of Freund Complete Adjuvant (WAKO PURE CHEMICAL […], LTD.). This procedure was conducted once every week repetitively 4 times in total. One week after the final immunization, the whole blood was sampled. The blood sample was allowed to stand at room temperature for 1 hour or longer, and then in a refrigeration room for a day. On the following day, the serum fraction was isolated and centrifuged (3000 rpm, 10 min.), and the supernatant was stored as an antiserum at −20° C.
(2) Antigen-induced Bronchoconstriction
The bronchoconstriction was measured by a modified Konzett-Rossler method. Each male Hartley guinea pig weighing 400 to 500 g (NIPPON SLC, Shizuoka) was anesthetized with ether, treated intravenously with 1.0 mL of a 8- to 16-fold diluted anti-OA serum, and subjected to an experiment after 16 to 24 hours. Under an anesthesia with urethane (1.2 g/kg ip) (Aldrich), a tracheal cannula was inserted, and gallamine triethiodide (1 mg/kg iv) (Sigma) was administered to arrest the spontaneous respiration. The animal was ventilated artificially using an artificial respirator (Harvard model 683) at 70 respirations/minutes, with each ventilation volume of 2 to 3 mL and initial load of 10 cmH2O, and the intratracheal pressure was measured at the side arm of the tracheal cannula using a differential pressure type transducer. Mepyramine maleate (1.0 mg/kg) (Sigma) and propranolol (1.0 mg/kg) (Sigma) were administered intravenously 2 minutes after the administration of gallamine triethiodide, and after further 2 minutes the OA antigen (1.0 mg/kg) was administered intravenously to induce the bronchoconstriction.
A compound of Example was dissolved in 25% dimethylacetamide, 25% polyethylene glycol 400 and 50% physiological saline, and administered intravenously 5 minutes before the antigen challenge at a dose of 1 mg/kg. Percent inhibition was calculated based on the comparison with a control group (intravenous administration of a mixture of 25% dimethylacetamide, 25% polyethylene glycol 400 and 50% physiological saline).

Compound	IC50 [1] [nM]	% inhibition in bronchoconstriction [2] [%]
COc1cc2c(c3c1OC(C)(C)C3)C(c1cccc(NC(=O)C[S+](C)[O-])c1)=NC(C)(C)C2 (centres unmarked) [Example 39, 2-(Methylsulfinyl)-N-[3-(3,4,8,9-tetrahydro-6-methoxy-3,3,8,8-tetramethylfuro[2,3-h]isoquinolin-1-yl)phenyl]acetamide]	19.4	45
COc1cc2c(c3c1OC(C)(C)C3)C(c1cccc(N(S(C)(=O)=O)S(C)(=O)=O)c1)=NC(C)(C)C2 [Example 45, N-(Methylsulfonyl)-N-[3-(3.4,8,9-tetrahydro-6-methoxy-3,3,8,8-tetramethylfuro[2,3-h]isoquinolin-1-yl)phenyl]methanesulfonamide]	9.36	44
COc1cc2c(c3c1OC(C)(C)C3)C(c1cccc(C(=O)NCCc3ccncc3)c1)=NC(C)(C)C2 [Example 149, N-[2-(4-Pyridinyl)ethyl]-3-(3,4.8,9-tetrahydro-6-methoxy-3,3,8,8-tetramethylfuro[2,3-h]isoquinolin-1-yl)benzamide]	40.1	58
COc1cc2c(c3c1OC(C)(C)C3)C(c1cccc(C(=O)NCC(N)=O)c1)=NC(C)(C)C2 [Example 157, N-(2-Amino-2-oxoethyl)-3-(3,4,8,9-tetrahydro-6-methoxy-3,3,8,8-tetramethylfuro[2,3-h]isoquinolin-1-yl)benzamide]	82	57
CNC(=O)c1cccc(C2=NC(C)(C)Cc3cc(OC)c4c(c32)CC(C)(C)O4)c1 [Example 179, N-Methyl-3-(3,4,8,9-tetrahydro-6-methoxy-3,3,8,8-tetramethylfuro[2,3-h]isoquinolin-1-yl)benzamide]	124	46
CCNC(=O)c1cccc(C2=NC(C)(C)Cc3cc(OC)c4c(c32)CC(C)(C)O4)c1 [Example 180, N-Ethyl-3-(3,4,8,9-tetrahydro-6-methoxy-3,3,8,8-tetramethylfuro[2,3-h]isoquinolin-1-yl)benzamide]	123	57
COc1cc2c(c3c1OC(C)(C)C3)C(c1cccc(-c3cccc(NC(C)=O)c3)c1)=NC(C)(C)C2 [Example 263, N-[3′-(3,4,8,9-Tetrahydro-6-methoxy-3,3,8,8-tetramethylfuro[2,3-h]isoquinolin-1-yl)[1,1′-biphenyl]-3-yl]acetamide]	13.7	59
